Source: US8287923B2, “Compositions and methods for treating immune disorders” (priority 2005, dated 2012)

Tests used:
NS-SV-AC cells = test: Western blot of p38, ERK and JNK phosphorylation; type: cell-based, human
Procedure: Western blot. Cells were washed in ice-cold PBS and lysed for 20 min in RIPA buffer containing 1% (v/v) Nonidet P-40, 0.5% (w/v) sodium deoxycholate, 0.1% (w/v) SDS, 10 μg/ml leupeptin, 3 μg/ml aprotinin and 100 mM phenylmethylsulfonyl fluoride (PMSF). Samples of lysates containing the same amount of protein were loaded in each lane (we used 5-30μg, depending on the antibody used) and electrophoretically separated on a 12% SDS polyacrylamide gel. Following electrophoresis, proteins were transferred to a PVDF membrane (Immobilon™-P, Millipore Corporation, Bedford, Mass.). The membrane was blocked for 1 h with 5% (w/v) non-fat dry milk powder in PBST (0.1% Tween-20 in PBS) and then incubated for 1 h with primary antibody diluted in PBST/milk (Antibodies and dilutions: rabbit polyclonal JNK1/2, […], mouse monoclonal pJNK1/2, 1:1000, rabbit polyclonal ERK, 1:2000, rabbit polyclonal p38, 1:1000, rabbit polyclonal pp 38, 1:1000 and goat polyclonal actin, 1:2000). The membrane was washed three times with PBST and incubated with peroxidase-conjugated, affinity-purified anti-rabbit IgG (Santa Cruz Biotechnology, Inc.) for 1 h. Following extensive washing, the reaction was developed by enhanced chemiluminescent staining using ECL Western blotting detection reagents (Amersham Pharmacia Biotech Inc., Piscataway, N.J.).
p38 activation is one mechanism by which GTPs attenuates mechanisms of SS pathogenesis. […] Therefore, of these three signaling pathways, EGCG activates primarily p38 in NS-SV-AC cells.

OSC2 cells = test: Semi-quantitative RT-PCR of SS-A/Ro and SS-B/La mRNA; type: cell-based, human; conditions: 100 uM EGCG
Procedure: Total RNA was extracted using an RNeasy total RNA isolation system (QIAGEN, Valentia, Calif.) RT reactions and PCR reactions were performed according to the manufacturer's protocol (Super Array Bioscience Corp). For amplification, the following pair of primers was used,
Amplification was started by heating for 1.5 min at 94° C., followed by 30 cycles for 52 kD SSA/Ro. 25 cycles for GAPDH and 25 cycles for SSB/La, each cycle consisting of 15
second at 94° C., 30 seconds at 57.3° C., and 1 min at 72° C. A final extension was performed at 72° C. for 5 min prior to gel analysis.
To further test this possibility, three cell types, NHEK, NS-SV-AC (an SV40 immortalized cell line derived from human submandibular acinar cells) and OC2 cells (derived from an oral squamous cell carcinoma) were treated with 100 uM EGCG for different times. A semi-quantitative estimate of SS-A/Ro and SS-B/La mRNA levels was then obtained by RT-PCR during the exponential period of amplification. GAPDH was used as a housekeeping gene control.

O=C(O[C@@H]1Cc2c(O)cc(O)cc2O[C@@H]1c1cc(O)c(O)c(O)c1)c1cc(O)c(O)c(O)c1 [EGCG, (−)-epigallocatechin-3-gallate]
pERK (NS-SV-AC cells): only a slight increase | phosphorylation of JNK (NS-SV-AC cells): not altered | phosphorylation of p38 (NS-SV-AC cells): rapid and sustained phosphorylation | time to p38 phosphorylation (NS-SV-AC cells): ≤ 30 min | SS-A/Ro mRNA level (OSC2 cells): showed little change | reduction in SS-B/La mRNA (OSC2 cells): less pronounced and did not occur until 24 hrs of exposure
